Data taken from US10028942B2 (priority 2013, dated 2018).

biological target: T1, DLK (Homo sapiens, UniProt Q12852); conditions: read-out: DLK (Ki) μM; TR-FRET; 5 nM GST-tagged DLK (catalytic domain aa 1-520), 40 nM HIS-MKK4 K131M substrate, 30 μM ATP, 60 minutes
T1 sequence (Q12852 1-520): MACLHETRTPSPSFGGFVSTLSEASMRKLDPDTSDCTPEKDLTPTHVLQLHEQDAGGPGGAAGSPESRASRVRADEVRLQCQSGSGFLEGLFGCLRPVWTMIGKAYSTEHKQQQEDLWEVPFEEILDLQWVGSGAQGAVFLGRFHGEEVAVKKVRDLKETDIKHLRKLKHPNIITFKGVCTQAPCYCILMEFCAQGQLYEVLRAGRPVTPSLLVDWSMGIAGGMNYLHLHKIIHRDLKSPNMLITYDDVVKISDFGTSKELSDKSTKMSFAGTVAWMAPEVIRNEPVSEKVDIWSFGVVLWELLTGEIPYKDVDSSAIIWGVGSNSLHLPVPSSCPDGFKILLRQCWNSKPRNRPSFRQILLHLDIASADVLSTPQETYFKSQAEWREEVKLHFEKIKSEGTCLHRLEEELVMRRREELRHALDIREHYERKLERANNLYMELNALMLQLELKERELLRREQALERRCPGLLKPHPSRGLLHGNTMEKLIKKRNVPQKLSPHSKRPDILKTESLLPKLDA

Compound	Ki [µM]
CC(C)n1nc(-c2cnc(N)c(C(F)(F)F)c2)cc1C(C)(C)O [Compound 2, 2-(3-(6-amino-5-(trifluoromethyl)py-ridin-3-yl)-1-isopropyl-1H-pyrazol-5-yl)propan-2-ol]	0.11
CC(C)n1nc(-c2cnc(N)c(OC(F)F)c2)cc1C(C)(C)O [Compound 3, 2-(3-(6-amino-5-(difluoromethoxy)pyridin-3-yl)-1-isopropyl-1H-pyrazol-5-yl)propan-2-ol]	0.14
CC(C)n1nc(-c2cnc(N)c(C(F)(F)F)c2)cc1C(C)(C)C#N [Compound 4, 2-(3-(6-amino-5-(trifluoromethyl)pyridin-3-yl)-1-isopropyl-1H-pyrazol-5-yl)-2-methylpropanenitrile]	0.78
CC(C)n1nc(-c2cnc(N)c(OC(F)(F)F)c2)cc1C(C)(C)C#N [Compound 6, 2-(3-(6-amino-5-(trifluoromethoxy)pyridin-3-yl)-1-isopropyl-1H-pyrazol-5-yl)-2-methylpropanenitrile]	0.14
CC(=O)N1CC(c2cc(-c3cnc4[nH]cc(C)c4c3)nn2CC2CC2)C1 [Compound 9, 1-(3-(1-(cyclopropylmethyl)-3-(3-meth-yl-1H-pyrrolo[2,3-b]pyridin-5-yl)-1H-pyrazol-5-yl)azetidin-1-yl)ethan-one]	0.076
CC(=O)N1CC(c2cc(-c3cnc4[nH]cc(C(F)(F)F)c4c3)nn2C)C1 [Compound 11, 1-(3-(1-methyl-3-(3-(trifluoromethyl)-1H-pyrrolo[2,3-b]pyridin-5-yl)-1H-pyrazol-5-yl)azetidin-1-yl)ethanone]	0.034
FC(F)(F)c1c[nH]c2ncc(-c3cc(C4CCOC4)n(C4CCOC4)n3)cc12 (centres unmarked) [Compound 15, 5-(1,5-bis(tetrahydrofuran-3-yl)-1H-pyrazol-3-yl)-3-(trifluoromethyl)-1H-pyrrolo[2,3-b]pyridine]	0.035
Cc1c[nH]c2ncc(-c3cc(C4CCOC4)n(C4CC(F)(F)C4)n3)cc12 (centres unmarked) [Compound 19, 5-(1-(3,3-difluorocyclobutyl)-5-(tetrahydrofuran-3-yl)-1H-pyrazol-3-yl)-3-methyl-1H-pyrrolo[2,3-b]pyridine]	0.082
Nc1ncc(-c2cc(C3CCOC3)n(C3CCC(F)(F)C3)n2)cc1Cl (centres unmarked) [Compound 23, 3-chloro-5-(1-(3,3-difluorocyclopent-yl)-5-(tetrahydrofuran-3-yl)-1H-pyra-zol-3-yl)pyridin-2-amine]	0.35
Nc1ncc(-c2cc(C3CCOC3)n(C3CC(F)(F)C3)n2)cc1Cl (centres unmarked) [Compound 25, 3-chloro-5-(1-(3,3-difluorocyclobut-yl)-5-(tetrahydrofuran-3-yl)-1H-pyra-zol-3-yl)pyridin-2-amine]	0.55
Cc1c[nH]c2ncc(-c3cc(C4CCOCC4)n(C4CC(F)(F)C4)n3)cc12 [Compound 35, 5-(1-(3,3-difluorocyclobutyl)-5-(tetra-hydro-2H-pyran-4-yl)-1H-pyrazol-3-yl)-3-methyl-1H-pyrrolo[2,3-b]pyri-dine]	0.1
FC1(F)CC(n2nc(-c3cnc4[nH]cc(C(F)(F)F)c4c3)cc2C2CCOCC2)C1 [Compound 38, 5-(1-(3,3-difluroocyclobutyl)-5-(tetra-hydro-2H-pyran-4-yl)-1H-pyrazol-3-yl)-3-(trifluoromethyl)-1H-pyrrolo [2,3-b]pyridine]	0.058
Nc1ncc(-c2cc(C3CCOCC3)n(C3CC(F)(F)C3)n2)cc1Cl [Compound 39, 3-chloro-5-(1-(3,3-difluorocyclobut-yl)-5-(tetrahydro-2H-pyran-4-yl)-1H-pyrazol-3-yl)pyridin-2-amine]	0.46
CC(C)n1nc(-c2cnc(N)c(C(F)(F)F)c2)cc1C1CCN(C)CC1 [Compound 41, 5-(1-isopropyl-5-(1-methylpiperidin-4-yl)-1H-pyrazol-3-yl)-3-(trifluoromethyl)pyridin-2-amine]	0.045
Cc1c[nH]c2ncc(-c3cc(C4CCN(C)C(=O)C4)n(C4CC(F)(F)C4)n3)cc12 (centres unmarked) [Compound 42, 4-(1-(3,3-difluorocyclobutyl)-3-(3-meth-yl-1H-pyrrolo[2,3-b]pyridin-5-yl)-1H-pyrazol-5-yl)-1-methylpiperidin-2-one]	0.25
CN1CCC(c2cc(-c3cnc(N)c(Cl)c3)nn2C2CC(F)(F)C2)CC1=O (centres unmarked) [Compound 43, 4-(3-(6-amino-5-chloropyridin-3-yl)-1-(3,3-difluorocyclobutyl)-1H-pyra-zol-5-yl)-1-methylpiperidin-2-one]	0.06
CN1CCC(c2cc(-c3cnc4[nH]cc(C(F)(F)F)c4c3)nn2C2CC(F)(F)C2)CC1=O (centres unmarked) [Compound 45, 4-(1-(3,3-difluorocyclobutyl)-3-(3-(tri-fluoromethyl)-1H-pyrrolo[2,3-b]pyri-din-5-yl)-1H-pyrazol-5-yl)-1-meth-ylpiperidin-2-one]	0.14
CC(=O)N1CCC(c2cc(-c3cnc4[nH]cc(C)c4c3)nn2C)CC1 [Compound 47, 1-(4-(1-methyl-3-(3-methyl-1H-pyrro-lo[2,3-b]pyridin-5-yl)-1H-pyrazol-5-yl)piperidin-1-yl)ethanone]	0.047
CC(C)n1nc(-c2cnc(N)c(C(F)(F)F)c2)cc1C1CCN(CC#N)CC1 [Compound 52, 2-(4-(3-(6-amino-5-(trifluoromethyl)pyridin-3-yl)-1-isopropyl-1H-pyrazol-5-yl)piperidin-1-yl)acetonitrile]	0.056

Further compounds by falling Ki, results first:

Ki [µM]	Compound
0.034	CC(C)c1cc(-c2cnc3[nH]cc(C(F)(F)F)c3c2)nn1C1CN(C2COC2)C1 [Compound 1, 5-(5-isopropyl-1-(1-(oxetan-3-yl)azetidin-3-yl)-1H-pyrazol-3-yl)-3-(trifluoromethyl)-1H-pyrrolo[2,3-b]pyridine]
0.028	CC(C)n1nc(-c2cnc3[nH]cc(C#N)c3c2)cc1C1CCN(CC(F)(F)F)CC1 [Compound 46, 5-(1-isopropyl-5-(1-(2,2,2-trifluoroethyl)piperidin-4-yl)-1H-pyrazol-3-yl)-1H-pyrrolo[2,3-b]pyridine-3-carbonitrile]
0.026	CC(=O)N1CC(c2cc(-c3cnc4[nH]cc(C)c4c3)nn2C(C)C)C1 [Compound 12, 1-(3-(1-isopropyl-3-(3-methyl-1H-pyrrolo[2,3-b]pyridin-5-yl)-1H-pyrazol-5-yl)azetidin-1-yl)ethanone]
0.025	CCc1c[nH]c2ncc(-c3cc(C4CCOC4)n(C4CC(F)(F)C4)n3)cc12 (centres unmarked) [Compound 20, 5-(1-(3,3-difluorocyclobutyl)-5-(tetra-hydrofuran-3-yl)-1H-pyrazol-3-yl)-3-ethyl-1H-pyrrolo[2,3-b]pyridine]
0.019	CC(=O)N1CCC(c2cc(-c3cnc4[nH]cc(C)c4c3)nn2C(C)C)CC1 [Compound 49, 1-(4-(1-isopropyl-3-(3-methyl-1H-pyrrolo[2,3-b]pyridin-5-yl)-1H-pyrazol-5-yl)piperidin-1-yl)ethanone]
0.019	FC(F)(F)c1c[nH]c2ncc(-c3cc(C4CN(C5COC5)C4)n(C4CCOC4)n3)cc12 (centres unmarked) [Compound 55, 5-(5-(1-(oxetan-3-yl)azetidin-3-yl)-1-(tetrahydrofuran-3-yl)-1H-pyrazol-3-yl)-3-(trifluoromethyl)-1H-pyrrolo[2,3-b]pyridine]
0.013	FC1(F)CCC(n2nc(-c3cnc4[nH]cc(C(F)(F)F)c4c3)cc2C2CCOC2)C1 (centres unmarked) [Compound 16, 5-(1-(3,3-difluorocyclopentyl)-5-(tetrahydrofuran-3-yl)-1H-pyrazol-3-yl)-3-(trifluoromethyl)-1H-pyrrolo[2,3-b]pyridine]
0.01	CC(=O)N1CC(c2cc(-c3cnc4[nH]cc(C(F)(F)F)c4c3)nn2CC2CC2)C1 [Compound 8, 1-(3-(1-(cyclopropylmethyl)-3-(3-(trifluoromethyl)-1H-pyrrolo[2,3-b]pyridin-5-yl)-1H-pyrazol-5-yl)azetidin-1-yl)ethanone]
0.0064	CC(=O)N1CC(c2cc(-c3cnc4[nH]cc(C(F)(F)F)c4c3)nn2C(C)C)C1 [Compound 10, 1-(3-(1-isopropyl-3-(3-(trifluorometh-yl)-1H-pyrrolo[2,3-b]pyridin-5-yl)-1H-pyrazol-5-yl)azetidin-1-yl)ethan-one]
0.0037	CC(=O)N1CCC(c2cc(-c3cnc4[nH]cc(C(F)(F)F)c4c3)nn2C(C)C)CC1 [Compound 50, 1-(4-(1-isopropyl-3-(3-(trifluorometh-yl)-1H-pyrrolo[2,3-b]pyridin-5-yl)-1H-pyrazol-5-yl)piperidin-1-yl)etha-none]
0.00048	CC(C)n1nc(-c2cnc3[nH]cc(C(F)(F)F)c3c2)cc1C1CN(C2COC2)C1 [Compound 54, 5-(1-isopropyl-5-(1-(oxetan-3-yl)aze-tidin-3-yl)-1H-pyrazol-3-yl)-3-(trifluoro-methyl)-1H-pyrrolo[2,3-b]pyridine]
0.00017	CC(C)n1nc(-c2cnc3[nH]cc(C(F)(F)F)c3c2)cc1C1CCN(C)CC1 [Compound 40, 5-(1-isopropyl-5-(1-methylpiperidin-4-yl)-1H-pyrazol-3-yl)-3-(trifluoro-methyl)-1H-pyrrolo[2,3-b]pyridine]
0.00017	CC(C)n1nc(-c2cnc3[nH]cc(C(F)(F)F)c3c2)cc1C1CCN(CC#N)CC1 [Compound 51, 2-(4-(1-isopropyl-3-(3-(trifluorometh-yl)-1H-pyrrolo[2,3-b]pyridin-5-yl)-1H-pyrazol-5-yl)piperidin-1-yl)aceto-nitrile]
